Test results taken from PMC8147177, “Bio-Insecticide of Thymus vulgaris and Ocimum basilicum Extract from Cell Suspensions and Their Inhibitory Effect against Serine, Cysteine, and Metalloproteinases of the Red Palm Weevil (Rhynchophorus ferrugineus)” (Insects, 2021).
In brackets after ≈: the same amount, converted by molar mass. Each block holds one compound with its values, some of them ahead of it.

Experiments:
Type in all cases: biochemical, Rhynchophorus ferrugineus
[1] = tested on: total proteases of R. ferrugineus midgut; experiment: Total proteolytic enzyme activity (azocasein) in 4th instar larval midgut homogenate; conditions: for IC50 against total proteases: in vitro, midgut of 4th instar larvae; for Specific activity, Total Proteases: control 25.83 ± 0.45
Procedure: Protein determination was carried out according to the Lowry method. Total proteolytic enzyme activity using azocasein was assessed in the 4th midgut instars larvae homogenate of R. ferrugineus according to Olga et al., [42] with modifications. The 4th midgut larvae homogenates of lab strain (10 larvae) were pulled out gently, excised, and washed using a saline solution (0.9% (w/v) NaCl) repeatedly and then homogenized using 500 µL of an assay buffer. The midgut instar was homogenized in 500 µL of a protease assay buffer [50 mM HEPS (N-2-hydroxyelthyl piperazin-N′-2-ehtanesulphonic acid), pH 8.0, 5 mM dithiothreitol (DTT) and 0.1% (v/v) Triton X-100]. The reserve homogenates that were obtained from a previous step were centrifuged at 5000× g for 30 min using a Sigma 3k30 cooling centrifuge. The supernatants were used for estimation of the total proteolytic enzyme activity and protein concentration. Ten microliters of supernatant per assay was incubated in a total volume of 60 µL of assay buffer (pH 8) for 20 min at 37 °C before the addition of 200 µL of azocasien (2%, w/v in an assay buffer).
In all cases, enzyme samples of 10 μL, hydro distillate extract from the cell suspension after 40 days, and pure compounds (thymol, estragole, p-cymene, γ-terpinene, linalool, β-terpineol, ocimene, eugenol, 1,8-cineole, β-Caryophyllene, and germacrene D) (50, 100, 500, 1000, and 5000 mg/L) were pre-incubated together for 10 min. Substrate was then added to start the reaction (20 min for Leupeptin). The reaction lasted for 180 min at 37 °C and was then stopped using 300 µL of cold 10% (v/v) trichloroacetic acid (TCA). The reaction mixture was centrifuged at 5000× g for 20 min using the Sigma 3k30 cooling centrifuge. Ten microliters of NaOH (10 N) was added to the supernatant, and absorbency at 450 nm was measured using an ELISA plate reader. An assay mixture without an enzyme was used as a blank, the specific activity of total proteolytic enzymes was calculated as OD450. mg^−1·protein^−1·h^−1, and a blank sample was determined without an enzyme solution.
(§1) Specific protease inhibitors were added to the reactions of proteolytic activity determination assays, and the inhibitors were: PMSF, a general serine proteinase inhibitor; TLCK, a trypsin-like serine proteinase inhibitor; TPCK, a chymotrypsin-like serine proteinase inhibitor; an iodoacetic acid-like cysteine proteinase inhibitor; an EDTA-like metalloproteinase inhibitor; and leupeptin, a general proteinase inhibitor. The 4th midgut larval homogenates of a lab strain were prepared as described above in the assay for enzyme activity determination. The inhibition assay was carried out on a microplate assay as described above. A series of inhibitor concentrations was prepared in order to establish the maximum inhibition by each inhibitor. The leupeptin (0.01, 0.05, 0.1, and 1.0 mM), PMSF (0.1, 1.0, 10, and 50 mM), TLCK and TPCK (0.01, 0.05, 0.1, 1, 50, and 100 mM), EDTA (0.1, 1, 10, 50, and 100 mM), and iodoacetic acid concentrations (0.01, 0.05, 0.1, and 1 mM) were dissolved in the assay buffers.
(§2) To identify the proteases present in the R. ferrugineus 4th midgut larval instar homogenate preparations, different mechanistic class inhibitors were tested. In all protease types, enzyme samples of 10 µL and inhibitors or extracts from the cell suspension after 40 days or pure compounds (thymol, p-cymene, γ-terpinene, β-caryophyllene, linalool, estragole, β-terpineol, ocimene, 1,8-cineole, germacrene D, and eugenol) (1, 10, 50, 100, 500, 1000, and 5000 mg/L) were pre-incubated for 10 min before adding the substrate. An assay mixture without inhibitors was used as control. Absorbance was measured using an ELISA plate reader at different nm according to the type of enzymes. Percent activity of the control for each inhibitor was calculated to each enzyme.

[2] = molecular target: elastase-like proteinase of R. ferrugineus midgut; experiment: Elastase-like serine proteinase specific activity assay (SAAPLpNA) in 4th instar midgut homogenate; conditions: for IC50 against elastase: in vitro, midgut of 4th instar larvae; for Specific activity, Elastase: control 8.23 ± 0.02
Procedure: (§3) Serine proteinase specific activities were assayed, as described by Olga et al. with modifications, using a rapid microplate assay with synthetic substrates in 150 µL reaction mixtures containing a serine protease assay buffer (100 mM Tris-HCl, pH 8.1). Na-benzoyl-L-arginine ρ-nitroanilide (BAρNA) was evaluated for trypsin-like proteinases, N-succinyl-ala-alapro-leucine ρ-nitroanilide (SAAPLρNA) for elastase-like proteinases, and N-succinyl-ala-ala-pro-phenylalanine ρ-nitroanilide (SAAPFρNA) for chymotrypsin-like proteinases.
(§4) The 4th instar midguts were homogenized with the assay buffer. The homogenates of midguts were centrifuged at 8000× g for 30 min using Sigma 3K 30 rotors No. 12158 (Sigma laboratories centrifuge 3K30). Enzyme (10 µL) was added to each plate well (containing 40 µL of buffers) for the assays chymotrypsin-, trypsin-, and elastase-like proteinases. Stock substrates of BAρNA (100 mg/mL in DMSO), SAAPFρNA (100 mg/mL in DMF), and SAAPLρNA (100 mg/mL in DMF) were diluted to 1.0 mg/mL with an assay buffer. The total volume of the substrate was 50 µL. The reaction mixture was immediately incubated at 37 °C for 15 min and then stopped with 50 µL 30% acetic acid. Nitroaniline was measured at 405 nm using an ELISA plate reader. An assay mixture with a denaturation enzyme instead of a live enzyme was used as the blank well. Specific proteinase activities were expressed in OD/min mg protein in triplicate (for three substrates).
as §1, §2

[3] = molecular target: trypsin-like serine proteinase of R. ferrugineus midgut; experiment: Trypsin-like serine proteinase specific activity assay (BApNA) in 4th instar midgut homogenate; conditions: for IC50 against trypsin-like serine proteinase: in vitro, midgut of 4th instar larvae; for Specific activity, Trypsin: control 4.10 ± 0.11
Procedure: as §3, §4, §1, §2

[4] = tested on: metalloproteinase of R. ferrugineus midgut; experiment: Metalloproteinase specific activity assay (azocasein) in 4th instar midgut homogenate; conditions: control 1.15
Procedure: The 4th midgut larvae (10 larvae) were pulled out gently, excised, washed with saline solution (0.9% NaCl) repeatedly to remove foodstuff and then homogenized in a 500 µL assay buffer. […] The homogenates were centrifuged at 5000× g for 30 min using the Sigma 3k30 cooling centrifuge. The supernatants were used for estimation of enzyme activity and protein concentration. […] The reaction was stopped with 300 µL of cold 10% trichloroacetic acid (TCA) and proceeded for 180 min at 37 °C. The reaction mixture was centrifuged at 5000× g for 20 min using the Sigma 3k30 cooling centrifuge, 10 µL of 10 N NaOH was added to the supernatant, and absorbance at 450 nm was measured using an ELISA plate reader. An assay mixture without an enzyme was used as the blank. […] Specific protease inhibitors were added to the reactions of proteolytic activity determination assays, and the inhibitors were: PMSF, a general serine proteinase inhibitor; […] The inhibition assay was carried out on a microplate assay as described above. A series of inhibitor concentrations was prepared in order to establish the maximum inhibition by each inhibitor. […] An assay mixture without inhibitors was used as control. Absorbance was measured using an ELISA plate reader at different nm according to the type of enzymes. Percent activity of the control for each inhibitor was calculated to each enzyme.

[5] = tested on: cysteine proteinase of R. ferrugineus midgut; experiment: Cysteine proteinase specific activity assay (Z-Phe-Arg-MNA) in 4th instar midgut homogenate; conditions: for Specific activity, Cysteine Protease: control 0.59 ± 0.05
Procedure: as §1, §2

[6] = tested on: chymotrypsin-like serine proteinase of R. ferrugineus midgut; experiment: Chymotrypsin-like serine proteinase specific activity assay (SAAPFpNA) in 4th instar midgut homogenate; conditions: for Specific activity, Chymotrypsin: control 7.35 ± 0.02
Procedure: as §3, §4, §1, §2

IC50 against elastase [2]: 116 µg/mL (≈ 752 µM) | IC50 against trypsin-like serine proteinase [3]: 71.7 µg/mL (≈ 465 µM)
Compound: CC12CCC(CC1)C(C)(C)O2 [1,8-cineole]
IC50 against total proteases [1]: 92.1 µg/mL (≈ 597 µM)

Specific activity, Metallo-Protease ([4]; inhibitor 0.1 mM): 0.89 ± 0.11 OD/mg protein min | Specific activity, Metallo-Protease ([4]; inhibitor 1 mM): 0.80 ± 0.11 OD/mg protein min | Specific activity, Metallo-Protease ([4]; inhibitor 10 mM): 0.68 ± 0.11 OD/mg protein min | Specific activity, Metallo-Protease ([4]; inhibitor 50 mM): 0.59 ± 0.1 OD/mg protein min | Specific activity, Metallo-Protease ([4]; inhibitor 100 mM): 0.42 ± 0.1 OD/mg protein min
Compound: O=C([O-])CN(CCN(CC(=O)O)CC(=O)O)CC(=O)[O-].[Na+].[Na+] [EDTA, ethylenediaminetetraacetic acid disodium salt]

Compound: O=C(O)CI [Iodoacetic acid, iodoacetic acid]
Inhibition of midgut instar proteases (in words) ([5]; cysteine protease inhibitor): significantly inhibited | Specific activity, Cysteine Protease ([5]; inhibitor 0.01 mM): 0.28 ± 0.04 OD/mg protein min | Specific activity, Cysteine Protease ([5]; inhibitor 0.05 mM): 0.24 ± 0.05 OD/mg protein min | Specific activity, Cysteine Protease ([5]; inhibitor 0.1 mM): 0.19 ± 0.04 OD/mg protein min | Specific activity, Cysteine Protease ([5]; inhibitor 1 mM): 0.16 ± 0.05 OD/mg protein min

Compound: CC(=O)N[C@@H](CC(C)C)C(=O)N[C@@H](CC(C)C)C(=O)N[C@H](C=O)CCCNC(=N)N [Leupeptin, leupeptin]
Specific activity, Total Proteases ([1]; inhibitor 0.01 mM): 0.12 ± 0.05 OD/mg protein min | Specific activity, Total Proteases ([1]; inhibitor 0.05 mM): 0.08 ± 0.05 OD/mg protein min | Specific activity, Total Proteases ([1]; inhibitor 0.1 mM): 0.07 ± 0.05 OD/mg protein min | Specific activity, Total Proteases ([1]; inhibitor 1 mM): 0.01 ± 0.05 OD/mg protein min

Compound: O=S(=O)(F)Cc1ccccc1 [PMSF, phenymethanesulfonyl fluoride]
Inhibition of midgut proteases (in words) ([1]; purified proteases from midgut 4th larval instars): strongly inhibited | Specific activity, Elastase ([2]; inhibitor 0.1 mM): 6.46 ± 0.01 OD/mg protein min | Specific activity, Elastase ([2]; inhibitor 1 mM): 5.26 ± 0.03 OD/mg protein min | Specific activity, Elastase ([2]; inhibitor 10 mM): 4.18 ± 0.03 OD/mg protein min | Specific activity, Elastase ([2]; inhibitor 50 mM): 3.98 ± 0.0 OD/mg protein min

Compound: Cc1ccc(S(=O)(=O)N[C@@H](CCCCN)C(=O)CCl)cc1 [TLCK, N,p-tosyl-L-lysine chloromethyl ketone]
Specific activity, Trypsin ([3]; inhibitor 0.01 mM): 3.90 ± 0.11 OD/mg protein min | Specific activity, Trypsin ([3]; inhibitor 0.05 mM): 3.82 ± 0.1 OD/mg protein min | Specific activity, Trypsin ([3]; inhibitor 0.1 mM): 3.57 ± 0.1 OD/mg protein min | Specific activity, Trypsin ([3]; inhibitor 1 mM): 3.41 ± 0.09 OD/mg protein min | Specific activity, Trypsin ([3]; inhibitor 10 mM): 3.08 ± 0.1 OD/mg protein min | Specific activity, Trypsin ([3]; inhibitor 50 mM): 2.84 ± 0.09 OD/mg protein min | Specific activity, Trypsin ([3]; inhibitor 100 mM): 2.12 ± 0.1 OD/mg protein min | Inhibition of midgut instar proteases (in words) ([3]; trypsin-like serine proteinase inhibitor): significantly inhibited

Compound: Cc1ccc(S(=O)(=O)N[C@@H](Cc2ccccc2)C(=O)CCl)cc1 [TPCK, N,alpha-tosyl-L-phenylalanine chloromethyl ketone]
Inhibition of midgut instar proteases (in words) ([6]; chymotrypsin-like serine proteinase inhibitor): significantly inhibited | Specific activity, Chymotrypsin ([6]; inhibitor 0.01 mM): 6.97 ± 0.03 OD/mg protein min | Specific activity, Chymotrypsin ([6]; inhibitor 0.05 mM): 6.40 ± 0.02 OD/mg protein min | Specific activity, Chymotrypsin ([6]; inhibitor 0.1 mM): 6.18 ± 0.02 OD/mg protein min | Specific activity, Chymotrypsin ([6]; inhibitor 1 mM): 5.28 ± 0.02 OD/mg protein min | Specific activity, Chymotrypsin ([6]; inhibitor 10 mM): 4.87 ± 0.02 OD/mg protein min | Specific activity, Chymotrypsin ([6]; inhibitor 50 mM): 3.64 ± 0.03 OD/mg protein min | Specific activity, Chymotrypsin ([6]; inhibitor 100 mM): 2.02 ± 0.02 OD/mg protein min

Compound: C=CCc1ccc(O)c(OC)c1 [eugenol]
IC50 against total proteases [1]: 99.7 µg/mL (≈ 607 µM) | IC50 against trypsin-like serine proteinase [3]: 74.1 µg/mL (≈ 451 µM)

IC50 against elastase [2]: 109.1 µg/mL (≈ 707 µM)
Compound: C=CC(C)(O)CCC=C(C)C (stereo not drawn) [linalool]
IC50 against total proteases [1]: 197 µg/mL (≈ 1280 µM)

IC50 against elastase [2]: 169 µg/mL (≈ 1260 µM) | IC50 against trypsin-like serine proteinase [3]: 98.4 µg/mL (≈ 733 µM)
Compound: Cc1ccc(C(C)C)cc1 [p-cymene]
IC50 against total proteases [1]: 121.8 µg/mL (≈ 907 µM)

IC50 against elastase [2]: 195 µg/mL (≈ 1300 µM)
Compound: Cc1ccc(C(C)C)c(O)c1 [thymol]
IC50 against total proteases [1]: 189.7 µg/mL (≈ 1260 µM)

Compound: C=C(C)C1CCC(C)(O)CC1 (stereo not drawn) [β-terpineol]
IC50 against total proteases [1]: 214 µg/mL (≈ 1390 µM)

IC50 against elastase [2]: 163 µg/mL (≈ 1200 µM) | IC50 against trypsin-like serine proteinase [3]: 105.7 µg/mL (≈ 776 µM)
Compound: CC1=CCC(C(C)C)=CC1 [γ-terpinene]
IC50 against total proteases [1]: 137.3 µg/mL (≈ 1010 µM)
